6 molecules from article PMC11176637 (iScience, 2024) can be followed below.

Holding throughout (assay type): cell-based
The subject of assay [1] is VSVΔG-G (vesicular stomatitis virus glycoprotein). Nature of the assay: microbe, parasite or virus in culture. The conditions noted are these: for IC50: Vesicular stomatitis virus, read-out: IC50, VSVΔG pseudotypes: G; for IC50 against VSVΔG-G: 0.3125–40 μM.
The test system of another assay is SARS-CoV-2 CH.1.1.
Assay [2] has as its system VSVΔG-Sδ (SARS-CoV-2 Delta S glycoprotein). Nature of the assay: microbe, parasite or virus in culture. The conditions noted are these: for IC50: Severe acute respiratory syndrome coronavirus 2, read-out: IC50 against VSVΔG-Sδ.
A further assay relates to SARS-CoV-2 XBB.1.5.
Assay [3] concerns VSVΔG-SM (MERS-CoV S glycoprotein). The following applies: 0.3125–40 μM.
Assay [4] has as its system SARS-CoV-2 Delta (B.1.617.2).
In assay [5] the test system is VSVΔG-Sα (SARS-CoV-2 Alpha S glycoprotein). Nature of the assay: microbe, parasite or virus in culture. The following applies: Severe acute respiratory syndrome coronavirus 2, read-out: IC50 against VSVΔG-Sα.
Assay [6] concerns VSVΔG-Sο (SARS-CoV-2 Omicron S glycoprotein). Nature of the assay: microbe, parasite or virus in culture. The conditions noted are these: Severe acute respiratory syndrome coronavirus 2, read-out: IC50 against VSVΔG-Sο.

On to `Cc1cccc(NC(=O)C[S+]([O-])c2nc(-c3ccccc3)cn2-c2ccc(Cl)cc2)c1C` (racemic) [PCM-0282478, 2-((1-(4-chlorophenyl)-4-phenyl-1H-imidazol-2-yl)sulfinyl)-N-(2,3-dimethylphenyl)acetamide], for which the IC50 in assay [1] is more than 10000 nM. In addition, the “IC50, SARS-CoV-2: CH.1.1 viral replication” value in the assay on SARS-CoV-2 CH.1.1 is listed as “neither inhibited”. The “times more potent than synthesized PCM-0163855 against VSVΔG-Sδ” value in assay [2] was “approximately 10 times”. The “IC50, SARS-CoV-2: XBB.1.5 viral replication” value in the assay on SARS-CoV-2 XBB.1.5 is “neither inhibited”.

In the case of `CNC(=O)C(C#N)(Cc1cc(Cl)cc2c1OCOC2)Cc1cc(Cl)cc2c1OCOC2` [PCM-0068389, N-methyl3-(6-chloro-2,4-dihydro-1,3-benzodioxin-8-yl)-2-[(6-chloro-2,4-dihydro-1,3-benzodioxin-8-yl)methyl]-2-cyanopropionamide], the “IC50 against VSVΔG-G” value in assay [1] is recorded as “some activity”. The “IC50 against VSVΔG-SM” value in assay [3] is “lost all activity”.

On to `N=C(N)Nc1ccc(C(=O)Oc2ccc3cc(C(=N)N)ccc3c2)cc1` [PCM-0095060, 6-amidino-2-naphthyl p-guanidinobenzoate, reference compound], for which, in assay [4], the “inhibition of bona fide SARS-CoV-2 Delta virus replication” value is given as “failed to inhibit”. Also, in assay [1], the “IC50 against VSVΔG-G” value is listed as “no significant activity”. Further, the IC50 amounted to 310 nM in assay [2] and 920 nM in assay [5].

Consider `Cc1cccc(NC(=O)CS(=O)(=O)c2nc(-c3ccccc3)cn2-c2ccc(Cl)cc2)c1C` [PCM-0163855, 2-((1-(4-chlorophenyl)-4-phenyl-1H-imidazol-2-yl)sulfonyl)-N-(2,3-dimethylphenyl)acetamide], for which the IC50 in assay [1] was more than 10000 nM; in assay [2], 450 nM; in assay [5] it was 370 nM; in assay [6] it was 41200 nM. Further, the “IC50, SARS-CoV-2: CH.1.1 viral replication” value in the assay on SARS-CoV-2 CH.1.1 is listed as “neither inhibited”. Besides, the “IC50 against VSVΔG-SM” value in assay [3] is “inactive”. The “IC50, SARS-CoV-2: XBB.1.5 viral replication” value in the assay with SARS-CoV-2 XBB.1.5 was “neither inhibited”.

Consider `COc1ccc2cc3c(N)nn(C(=O)Cc4c[nH]c5ccccc45)c3nc2c1` [PCM-0166392, 1-{6-amino-12-methoxy-2,4,5-triazatricyclo[7.4.0.0³,⁷]trideca-1,3(7),5,8,10,12-hexaen-4-yl}-2-(3-indolyl)-1-ethanone], for which the “IC50 against VSVΔG-SM” value in assay [3] was “not selective”.

Regarding `Nc1nc(Nc2ccccc2)sc1C(=O)c1ccccc1Cl` [PCM-0179622, (4-amino-2-anilino-1,3-thiazol-5-yl)(o-chlorophenyl)methanone], the “IC50 against VSVΔG-SM” value in assay [3] is reported as “not selective”.

One may read the IC50 as the midpoint of a concentration-inhibition curve.
